Experimental data reported in US9725490B2, “ERAP1-derived peptide and use thereof” (TOKUSHIMA UNIVERSITY, priority 2011, dated 2017).
“Also recorded” adds a separate entry of the source.

Assays:
MCF-7 cells = assay: Cell cycle FACS analysis, MCF-7; type: cell-based, human; conditions: 10 μM ERAP1-peptide and/or 10 nM tamoxifen, 10 nM E2 24 hours
Experimental: FIG. 6-2 is a diagram illustrating that ERAP1-peptide treatment suppresses ERα-dependent cell proliferation of breast cancer cell lines. […] MCF-7 cells were treated with 10 μM ERAP1-peptide or 10 μM tamoxifen. Then, immediately, the cells were stimulated with 10 nM E2 for 24 hours. After the immobilization, the cells were stained with propidium iodide, and analyzed by flow cytometry.
FIG. 19 is a diagram illustrating the results of FACS analysis showing the effects of concomitant use of the ERAP1-peptide and tamoxifen on the cell cycle.
The cells were fixed with cold 70% ethanol, and stained with 20 μg/ml propidium iodide (Sigma) and 1 mg/ml ribonuclease A (Sigma), and analyzed with FACSCalibur (B D, Franklin Lakes, N.J., USA). The cell cycle was evaluated using CellQuest software (BD).
MCF-7 cells were treated with 10 μM ERAP1-peptide and/or 10 nM tamoxifen. Then, immediately, the cells were stimulated with 10 nM E2 for 24 hours. After the immobilization, the cells were stained with propidium iodide, and analyzed by flow cytometry.

[1] = system: pS2, cyclin D1, c-Myc, SP-1, E2F1, PgR; assay: Quantitative RT-PCR of ERα target genes, KPL-3C; type: cell-based, human; conditions: 24 hours
[2] = system: ERα binding to Her2, EGFR, IGF1-Rβ, PI3K; AKt and MAPK routes; assay: Non-genomic activation route, immunoblotting, BT474; type: cell-based, human
Experimental: FIG. 10-2 is a diagram illustrating that the ERAP1-peptide regulates E2-induced non-genomic activation route via IGF-1Rβ and Shc. […] BT-474 cells were treated with the ERAP1-peptide and/or E2 for 24 hours. Then, the cytoplasm fraction was immunoprecipitated with anti-ERα antibody.
FIG. 10-3 is a diagram illustrating that the ERAP1-peptide regulates E2-induced non-genomic activation route via IGF-1Rβ and Shc. […] BT-474 cells were treated with the ERAP1-peptide. Then, the phosphorylation levels of Akt and MAPK were evaluated by Western blotting. […] MCF-7 cells were treated with the ERAP1-peptide or the ERAP1-scramble peptide. The relative phosphorylation levels were quantified by densitometry analysis, and the ratio to the value at 0 hour in the untreated cells was calculated.

Tam-R MCF-7 tumor = assay: In vivo antitumor effect, Tam-R MCF-7 orthotopic transplant; set-up: species or system BALB/c nude mouse; conditions: intraperitoneal every day, E2 6 μg/day, day 21
From the text: FIG. 27 is a diagram illustrating the inhibition effect of the ERAP1-peptide on tumor proliferation in a mouse orthotopically transplanted with human breast cancer. […] KPL-3 cells were subcutaneously transplanted into the breast fat body of a BALB/c nude mouse. The treatment test (5 individuals/group) was initiated (day 0) when the volume of the tumor reached about 50-80 mm^3 in the absence of E2. To a cancerous mouse orthotopically transplanted with KPL-3C tumor, the ERAP1-peptide (Peptide: 14 mg/kg) or the ERAP1-scramble peptide (scrPeptide: 14 mg/kg) was administered every day by intraperitoneal injection. At the same time, E2 (6 μg/day) was administered subcutaneously every day. On day 14, the mouse was euthanatized, and the tumor was removed, and phosphorylation of PHB2/REA (S39) in each tumor was evaluated with immunoblotting analysis. […] The tamoxifen-resistant MCF7-cells (Tam-R MCF-7) were subcutaneously transplanted into the breast fat body of a BALB/c nude mouse, and the treatment test (5 individuals/group) was initiated (day 0) when the volume of the tumor reached about 50-80 mm^3 in the presence of tamoxifen (37 ng/day, 1.85 μg/kg). To a cancerous mouse orthotopically transplanted with Tam-R MCF-7 tumor, the ERAP1-peptide (Peptide: 3.5, 7 and 14 mg/kg) or the ERAP1-scramble peptide (scrPeptide: 14 mg/kg) was administered every day by intraperitoneal injection. […]

[3] = system: protein expression in MCF-7 cells; assay: 2DICAL proteome analysis, MCF-7; type: cell-based, human; conditions: 10 μM, 10 nM E2 1 hour, versus E2 or E2 + scramble
Experimental: MCF-7 cells were treated with 10 μM ERAP1-peptide (Peptide) and the ERAP1-scramble peptide (scrPeptide). Then, immediately, the cells were stimulated with 10 nM E2 for 1 hour. Subsequently, the obtained cell lysate solution was digested with trypsin and subjected to 2DICAL. […] MCF-7 cells were treated with 10 μM ERAP1-peptide. Then, immediately, the cells were stimulated with 10 nM E2 for 5, 10 and 15 hours. Then, RNA extraction and then Cy3-cRNA synthesis were performed, and the Cy3-cRNA was subjected to the microarray. The data were statistically analyzed by GeneSpring software, and the ratio to the value at 0 hour was calculated. **P<0.01.
MCF-7 cells were treated with 10 μM ERAP1-peptide and ERAP1-scramble peptide. Then, immediately, the cells were stimulated with 10 nM E2. Then, the cells were fixed with methanol. The cells were dried under reduced pressure, and then treated with trypsin in the presence of 2% sodium deoxycholate and 5 M urea at 37° C. for 20 hours. The protein was extracted with ethyl acetate. […] The data were calculated as a ratio to the value at 0 hour.

Q: Which cell cycle (MCF-7 cells) does the source give for `CSCC[C@H](NC(=O)[C@H](CCC(N)=O)NC(=O)[C@H](CCCNC(=N)N)NC(=O)[C@H](CCCNC(=N)N)NC(=O)[C@H](CCCNC(=N)N)NC(=O)[C@H](CCCNC(=N)N)NC(=O)[C@H](CCCNC(=N)N)NC(=O)[C@H](CCCNC(=N)N)NC(=O)[C@H](CCCNC(=N)N)NC(=O)[C@H](CCCNC(=N)N)NC(=O)[C@H](CCCNC(=N)N)NC(=O)[C@H](CCCNC(=N)N)NC(=O)[C@@H](N)CCCNC(=N)N)C(=O)N[C@@H](CC(C)C)C(=O)N[C@@H](CO)C(=O)N[C@@H](CC(=O)O)C(=O)N[C@@H](CC(C)C)C(=O)N[C@H](C(=O)N[C@@H](CC(C)C)C(=O)N[C@@H](CCC(N)=O)C(=O)N[C@@H](CC(C)C)C(=O)N[C@@H](CCCNC(=N)N)C(=O)N[C@@H](CCC(N)=O)C(=O)N[C@@H](CCCNC(=N)N)C(=O)O)[C@@H](C)O` [ERAP1-peptide] here?
A: induced stop of the G1 phase; also recorded: increase of cells having stopped in the G1 phase

Q: What about the “expression of ERα target genes” value [1] of the same compound?
A: remarkable suppression for expression of all of these genes

Q: What about the “bindings of ERα to Her2, EGFR, IGF1-Rβ and PI3K” value [2] of the same compound?
A: all of the bindings of ERα to Her2, EGFR, IGF1-Rβ and PI3K were inhibited

Q: And the “antitumor effect (tumor volume)” value (Tam-R MCF-7 tumor)?
A: The antitumor effect was recognized

Q: And the “change of protein expressions” value [3]?
A: decreased significantly and genome-widely
